Source: patent publication US20260242419A1, “A CYCLIC PEPTIDE FOR TRAPPING INTERLEUKIN-1 BETA” (Merck Sharp & Dohme LLC, priority 2023, published 2026)
Read-outs that look alike come from different tables or passages of the source. Starred links: 1 amine or outer side, 2 acyl side, 3 side chain; linkers in the order of their positions; H or OH if unused. Non-standard residues stand in square brackets, D forms with d. Residues, ends and D or L forms follow the SMILES beside them. dPro(4R-(4-pyridylmethyl)) = O=C(O)[C@H]1C[C@@H](Cc2ccncc2)CN1; Trp(βS-Me,4-F) = C[C@@H](c1c[nH]c2cccc(F)c12)[C@H](N)C(=O)O; Bip(4'-COOH) = N[C@@H](Cc1ccc(-c2ccc(C(=O)O)cc2)cc1)C(=O)O; Ala(1-bicyclo(1.1.1)pentyl) = N[C@@H](CC12CC(C1)C2)C(=O)O; dPro(4R-Bzl(4-F)) = O=C(O)[C@H]1C[C@@H](Cc2ccc(F)cc2)CN1; 1Nal(3S-Me) = C[C@@H](c1cccc2ccccc12)[C@H](N)C(=O)O; Trp(4-Cl) = N[C@@H](Cc1c[nH]c2cccc(Cl)c12)C(=O)O; X14 = O=C([C@H]1[C@@H](Cc2ccccc2)CCN1[*:1])[*:2]; Ala(pyrimidin-5-yl) = N[C@@H](Cc1cncnc1)C(=O)O; Phe(4-COOH) = N[C@@H](Cc1ccc(C(=O)O)cc1)C(=O)O; Pro(cis-4-F) = O=C(O)[C@@H]1C[C@H](F)CN1; d(αMeD) = C[C@@](N)(CC(=O)O)C(=O)O; 4Pal = N[C@@H](Cc1ccncc1)C(=O)O; αMeD = C[C@](N)(CC(=O)O)C(=O)O; d(αMeS) = C[C@@](N)(CO)C(=O)O; Dab = NCC[C@H](N)C(=O)O; Aib = CC(C)(N)C(=O)O

Biological target: T1, IL-1β (Homo sapiens, UniProt P01584)
T1 construct: purchased BioLegend 579404
T1 sequence (P01584 117-269): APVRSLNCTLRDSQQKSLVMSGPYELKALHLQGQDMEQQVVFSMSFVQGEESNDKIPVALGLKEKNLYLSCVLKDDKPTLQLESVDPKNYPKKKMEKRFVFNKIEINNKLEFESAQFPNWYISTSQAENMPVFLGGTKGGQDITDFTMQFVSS
Assay: IL-6 assay in MRC5 cells: inhibition of IL-1β induced IL-6 secretion (AlphaLISA)
Type: cell-based
Details: inhibition of IL-1β induced IL-6 secretion in MRC5 cells, read-out: MRC5 IC50
How it was run: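 Compound was pre-incubated 1 h at ambient temperature with recombinant human IL-1β at 2λ EC80 before adding human lung fibroblast MRC5 cells (3000/well) in EMEM with 0.025% BSA. After overnight culture at 37 °C, 5% CO2, secreted IL-6 in conditioned medium was measured by AlphaLISA; IC50 from 4-parameter logistic fits.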

## C[C@@H](c1c[nH]c2cccc(F)c12)[C@@H]1NC(=O)[C@@H]2C[C@H](F)CN2C(=O)CNC(=O)[C@H](Cc2ccc(C(=O)O)cc2)NC(=O)[C@H](Cc2ccncc2)NC(=O)[C@H](Cc2ccc(-c3ccc(C(=O)O)cc3)cc2)NC(=O)[C@H]2C[C@@H](Cc3ccncc3)CN2C(=O)CNC(=O)[C@H](CCN)NC(=O)[C@H](CCC(N)=O)NC(=O)[C@H](Cc2cncnc2)NC(=O)[C@@](C)(CO)NC(=O)[C@H](Cc2c[nH]c3ccccc23)NC(=O)[C@H](CO)NC(=O)C(C)(C)NC1=O [Example 111] (cyclo([Bip(4'-COOH)][4Pal][Phe(4-COOH)]G[Pro(cis-4-F)][Trp(βS-Me,4-F)][Aib]SW[d(αMeS)][Ala(pyrimidin-5-yl)]Q[Dab]G[dPro(4R-(4-pyridylmethyl))]))
  IC50: 0.019 nM

## C[C@@H](c1cccc2ccccc12)[C@@H]1NC(=O)[C@@H]2C[C@H](F)CN2C(=O)CNC(=O)[C@H](Cc2ccc(C(=O)O)cc2)NC(=O)[C@H](Cc2ccncc2)NC(=O)[C@H](Cc2ccc(-c3ccc(C(=O)O)cc3)cc2)NC(=O)[C@H]2C[C@@H](Cc3ccc(F)cc3)CN2C(=O)CNC(=O)[C@H](CCN)NC(=O)[C@H](CCC(N)=O)NC(=O)[C@H](Cc2cncnc2)NC(=O)C(C)(C)NC(=O)[C@H](Cc2c[nH]c3ccccc23)NC(=O)[C@H](CCC(=O)O)NC(=O)C(C)(C)NC1=O [Example 149] (cyclo([Bip(4'-COOH)][4Pal][Phe(4-COOH)]G[Pro(cis-4-F)][1Nal(3S-Me)][Aib]EW[Aib][Ala(pyrimidin-5-yl)]Q[Dab]G[dPro(4R-Bzl(4-F))]))
  IC50: 0.024 nM

## C[C@@H](c1c[nH]c2cccc(F)c12)[C@@H]1NC(=O)[C@@H]2C[C@H](F)CN2C(=O)CNC(=O)[C@H](Cc2ccc(C(=O)O)cc2)NC(=O)[C@H](Cc2ccncc2)NC(=O)[C@H](Cc2ccc(-c3ccc(C(=O)O)cc3)cc2)NC(=O)[C@H]2C[C@@H](Cc3ccncc3)CN2C(=O)CNC(=O)[C@H](CCN)NC(=O)[C@H](CCC(N)=O)NC(=O)[C@H](Cc2cncnc2)NC(=O)[C@@](C)(CC(=O)O)NC(=O)[C@H](Cc2c[nH]c3cccc(Cl)c23)NC(=O)[C@H](CO)NC(=O)C(C)(C)NC1=O [Example 251] (cyclo([Bip(4'-COOH)][4Pal][Phe(4-COOH)]G[Pro(cis-4-F)][Trp(βS-Me,4-F)][Aib]S[Trp(4-Cl)][d(αMeD)][Ala(pyrimidin-5-yl)]Q[Dab]G[dPro(4R-(4-pyridylmethyl))]))
Compound pre-incubated 1 hour with recombinant human IL-1β
  IC50: 0.013 nM

## C[C@@H](c1c[nH]c2cccc(F)c12)[C@@H]1NC(=O)[C@@H]2C[C@H](F)CN2C(=O)CNC(=O)[C@H](Cc2ccc(C(=O)O)cc2)NC(=O)[C@H](Cc2ccncc2)NC(=O)[C@H](Cc2ccc(-c3ccc(C(=O)O)cc3)cc2)NC(=O)[C@H]2[C@@H](Cc3ccccc3)CCN2C(=O)CNC(=O)[C@H](CO)NC(=O)[C@H](CCC(N)=O)NC(=O)[C@H](Cc2cncnc2)NC(=O)C(C)(C)NC(=O)[C@H](Cc2c[nH]c3ccccc23)NC(=O)[C@H](CCC(=O)O)NC(=O)C(C)(C)NC1=O [Example 28] (cyclo([Bip(4'-COOH)][4Pal][Phe(4-COOH)]G[Pro(cis-4-F)][Trp(βS-Me,4-F)][Aib]EW[Aib][Ala(pyrimidin-5-yl)]QSG[X14]))
  IC50: 0.023 nM

## CC(C)[C@@H]1NC(=O)[C@](C)(CC(=O)O)NC(=O)[C@H](Cc2c[nH]c3ccccc23)NC(=O)[C@H](CO)NC(=O)C(C)(C)NC(=O)[C@H]([C@@H](C)c2c[nH]c3cccc(F)c23)NC(=O)[C@@H]2C[C@H](F)CN2C(=O)CNC(=O)[C@H](Cc2ccc(C(=O)O)cc2)NC(=O)[C@H](CC23CC(C2)C3)NC(=O)[C@H](Cc2ccc(-c3ccc(C(=O)O)cc3)cc2)NC(=O)[C@H]2C[C@@H](Cc3ccncc3)CN2C(=O)CNC(=O)[C@H](CCN)NC(=O)[C@H](CCC(N)=O)NC1=O [Example 203] (cyclo([Bip(4'-COOH)][Ala(1-bicyclo(1.1.1)pentyl)][Phe(4-COOH)]G[Pro(cis-4-F)][Trp(βS-Me,4-F)][Aib]SW[αMeD]VQ[Dab]G[dPro(4R-(4-pyridylmethyl))]))
  IC50: 0.016 nM
